The test concerns PGP 9.5. Nature of the test: PGP 9.5 expression in CYP-CIPN rat hindpaw epidermis, Western immunoblotting. It is filed as in vivo. The conditions noted are these: 8-AG 5 mg/kg/day in drinking water. As for the experimental part: Animals. This study employed female Harlan Sprague Dawley (HSD) rats (3-4 mo; Envigo, Indianapolis, IN) and were divided into the following groups: 1) Control, 2) Cyclophosphamide (CYP, 75 mg/kg i.p. in saline vehicle; administered on days 0, 3 and 6); 3) 8-aminoguanine (8-AG; 5 mg/kg/day in drinking water; beginning 2 weeks prior to CYP and continuing until sacrifice (day 8)). The dose of 8-AG is based on our preliminary and published experiments. […] The investigation conforms to the Guide for the Care and Use of Laboratory Animals published by the US National Institutes of Health (NIH Publication No. 85-23, revised 1996). […]
Western immunoblotting: Following the testing paradigms, rats were deeply anesthetized and tissues (e.g., epidermis, peripheral sciatic nerves, spinal cord segments (L3-L5) and dorsal root ganglia (L3-L5) were removed, and a portion of each preparation was homogenized using Lysing Matrix D in a FASTPREP® 24 instrument (MP Biomedicals, Solon, OH) in HBSS [5 mM KCl, 0.3 mM KH2PO4, 138 mM NaCl, 4 mM NaHO3, 0.3 mM Na2HCO3, 0.3 mM Na2HPO4, 5.6 mM glucose and 10 mM Hepes, pH 7.4 containing complete protease inhibitor cocktail (1 tablet/10 ml, Roche, Indianapolis, IN)] and phosphatase inhibitor cocktail (Sigma, 1:100). […] The protein concentrations of the supernatants were determined using the Pierce BCA protein assay (Thermo Scientific, Rockford, IL). […]
(In general: A western blot detects proteins with antibodies after separation by electrophoresis.)

“Also recorded” adds a separate entry of the source.

On to `Nc1nc2[nH]c(N)nc2c(=O)[nH]1` [8-AG, 8-Aminoguanine], for which the “effect on CYP-induced decrease in PGP 9.5 expression” value was “restored to control values; also recorded: normalized”.

The values above are taken from patent US20250127787A1, “METHODS FOR TREATING PERIPHERAL NEUROPATHY” (University of Pittsburgh - Of the Commonwealth System of …, priority 2021, published 2025).
